The source made the active and inactive calls. The rule behind the calls is not given here.

The text below walks through data of ChEMBL document CHEMBL1150134, “Triterpenoid constituents isolated from the bark of Abies sachalinensis” (J Nat Prod, 2002).

In assay [1] the target is T1, DNA topoisomerase 2-alpha (Homo sapiens, UniProt P11388). The assay is described as follows: Inhibition of human DNA topoisomerase 2alpha.
The species entered for the next assay is Homo sapiens. In words: Inhibition of human DNA topoisomerase 1 at 200 uM.
Assay [2] deals with T1, DNA topoisomerase 2-alpha. In words: Inhibition of human DNA topoisomerase 2alpha at 200 uM.

T1 sequence (P11388 whole entry): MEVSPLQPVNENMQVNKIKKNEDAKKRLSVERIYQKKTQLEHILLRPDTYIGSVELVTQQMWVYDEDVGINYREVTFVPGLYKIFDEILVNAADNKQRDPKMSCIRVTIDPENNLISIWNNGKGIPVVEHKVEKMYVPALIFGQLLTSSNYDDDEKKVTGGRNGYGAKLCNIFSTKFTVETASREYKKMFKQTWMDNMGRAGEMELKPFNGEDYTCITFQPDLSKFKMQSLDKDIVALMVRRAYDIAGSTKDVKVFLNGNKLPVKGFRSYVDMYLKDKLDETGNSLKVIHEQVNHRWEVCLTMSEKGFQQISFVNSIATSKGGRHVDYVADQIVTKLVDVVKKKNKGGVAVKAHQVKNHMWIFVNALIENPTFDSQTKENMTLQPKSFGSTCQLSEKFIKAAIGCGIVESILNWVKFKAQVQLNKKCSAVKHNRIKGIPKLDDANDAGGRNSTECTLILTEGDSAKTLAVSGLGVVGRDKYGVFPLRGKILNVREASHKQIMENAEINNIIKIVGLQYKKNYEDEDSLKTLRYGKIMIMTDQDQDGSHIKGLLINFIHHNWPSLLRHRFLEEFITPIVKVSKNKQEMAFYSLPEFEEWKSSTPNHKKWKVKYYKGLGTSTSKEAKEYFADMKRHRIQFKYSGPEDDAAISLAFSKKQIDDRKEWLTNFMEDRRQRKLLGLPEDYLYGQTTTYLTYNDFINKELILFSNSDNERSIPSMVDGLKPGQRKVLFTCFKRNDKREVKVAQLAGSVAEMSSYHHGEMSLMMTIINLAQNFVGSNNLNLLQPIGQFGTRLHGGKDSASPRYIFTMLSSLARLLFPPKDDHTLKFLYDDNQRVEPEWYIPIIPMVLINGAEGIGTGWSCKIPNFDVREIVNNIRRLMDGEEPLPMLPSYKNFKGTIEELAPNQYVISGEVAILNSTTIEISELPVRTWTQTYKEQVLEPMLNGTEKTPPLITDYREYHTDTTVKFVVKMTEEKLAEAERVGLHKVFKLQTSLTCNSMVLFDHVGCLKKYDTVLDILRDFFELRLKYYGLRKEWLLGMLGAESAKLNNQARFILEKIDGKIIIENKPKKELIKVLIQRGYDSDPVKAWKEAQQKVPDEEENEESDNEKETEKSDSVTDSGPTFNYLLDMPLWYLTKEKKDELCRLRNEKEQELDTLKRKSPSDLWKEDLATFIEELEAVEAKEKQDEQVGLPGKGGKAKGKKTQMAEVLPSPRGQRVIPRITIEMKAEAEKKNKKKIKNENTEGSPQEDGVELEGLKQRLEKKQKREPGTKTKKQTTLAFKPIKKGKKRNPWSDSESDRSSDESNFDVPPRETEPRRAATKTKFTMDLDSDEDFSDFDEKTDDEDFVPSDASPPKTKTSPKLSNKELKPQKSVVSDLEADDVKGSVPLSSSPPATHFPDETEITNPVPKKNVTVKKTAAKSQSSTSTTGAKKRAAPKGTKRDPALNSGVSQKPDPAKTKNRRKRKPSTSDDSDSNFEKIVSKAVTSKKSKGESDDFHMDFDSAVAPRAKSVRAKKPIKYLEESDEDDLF

As for `C=C(C)[C@@H]1CC=C2[C@@H](CC[C@]3(C)[C@@H]([C@H](C)C[C@@H]4C[C@@H](C)C(=O)O4)CC[C@@]23C)[C@@]1(C)CCC(=O)OC`, in assay [1], the Activity result is “Dose-dependent effect” and the IC50 turned out to be 75.7 µM. The outcome in the assay filed under Homo sapiens was inactive. For the same compound, the result in assay [2] was Active.

On to `C=C(C)[C@@H]1CC=C2[C@@H](CC[C@]3(C)[C@@H]([C@H](C)CC(=O)C[C@@H](C)C(=O)OC)CC[C@@]23C)[C@@]1(C)CCC(=O)OC`, for which, in assay [1], the Activity entry is “Dose-dependent effect” and the IC50 came to 67.3 µM. Further, in the assay listed under Homo sapiens, the result was inactive. For the same compound, in assay [2], the outcome was Active.

On to `C=C(C)[C@@H]1CC=C2[C@@H](CC[C@]3(C)[C@@H]([C@H](C)C[C@@H]4C[C@@H](C)C(=O)O4)CC[C@@]23C)[C@@]1(C)CCC(=O)O`, for which, in assay [1], the Activity result is “Dose-dependent effect” and the IC50 came out at 42.6 µM. The result in the assay listed under Homo sapiens was inactive. Further, in assay [2], the outcome was Active.

In the case of `C=C(C)[C@@H]1CC=C2[C@@H](CC[C@]3(C)[C@@H]([C@H](C)C[C@H](O)C[C@@H](C)CO)CC[C@@]23C)[C@@]1(C)CCCO`, in assay [1], the Activity result was “Dose-dependent effect” and the IC50 is 50.4 µM. Also, the outcome in the assay listed under Homo sapiens was inactive. For the same compound, the outcome in assay [2] was Active.

With `C=C(C)[C@@H]1CC=C2[C@@H](CC[C@]3(C)[C@@H]([C@H](C)CC(=O)C[C@@H](C)C(=O)O)CC[C@@]23C)[C@@]1(C)CCC(=O)O`, in the assay listed under Homo sapiens, the outcome was inactive. This compound came in with an inhibition in assay [2] of 4%.

Usually IC50 stands for the point on the concentration scale where inhibition reaches its midpoint. Lower therefore signals inhibition by little substance. In general, inhibition refers to the drop in the measured response relative to a control, in per cent. A low value points to a weak effect.
